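Each compound was tested at five concentrations against cells in 96-well plates for 48 hours. At the GI50, growth is halved. TGI is the concentration that stops growth completely.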
Columns and labels:
Assay in all cases: NCI anticancer screen, dose series, 48 h
SNB-75 CNS = system: SNB-75 CNS
KM12 colon = system: KM12 colon
OVCAR-3 ovarian = system: OVCAR-3 ovarian
OVCAR-4 ovarian = system: OVCAR-4 ovarian
LOX IMVI melanoma = system: LOX IMVI melanoma
SN12C renal = system: SN12C renal
K-562 leukemia = system: K-562 leukemia
OVCAR-8 ovarian = system: OVCAR-8 ovarian
HOP-62 NSCLC = system: HOP-62 NSCLC
SR leukemia = system: SR leukemia
ACHN renal = system: ACHN renal
MCF7 breast = system: MCF7 breast
RXF 393 renal = system: RXF 393 renal
HT29 colon = system: HT29 colon
HCC-2998 colon = system: HCC-2998 colon
SF-295 CNS = system: SF-295 CNS
HOP-92 NSCLC = system: HOP-92 NSCLC
SF-268 CNS = system: SF-268 CNS
RPMI-8226 leukemia = system: RPMI-8226 leukemia
NCI-H23 lung = system: NCI-H23 lung
SNB-19 CNS = system: SNB-19 CNS
M14 melanoma = system: M14 melanoma
BT-549 breast = system: BT-549 breast
MOLT-4 leukemia = system: MOLT-4 leukemia
OVCAR-5 ovarian = system: OVCAR-5 ovarian
MALME-3M melanoma = system: MALME-3M melanoma
DU-145 prostate = system: DU-145 prostate
EKVX NSCLC = system: EKVX NSCLC
A549 NSCLC = system: A549 NSCLC
HS 578T breast = system: HS 578T breast
SK-OV-3 ovarian = system: SK-OV-3 ovarian
SW-620 colon = system: SW-620 colon
UACC-62 melanoma = system: UACC-62 melanoma
MDA-MB-231 breast = system: MDA-MB-231 breast
NCI/ADR-RES ovarian = system: NCI/ADR-RES ovarian
U251 CNS = system: U251 CNS
IGROV1 ovarian = system: IGROV1 ovarian
NCI-H460 lung = system: NCI-H460 lung
UACC-257 melanoma = system: UACC-257 melanoma
COLO 205 colon = system: COLO 205 colon
CAKI-1 renal = system: CAKI-1 renal
T-47D breast = system: T-47D breast
SF-539 CNS = system: SF-539 CNS
PC-3 prostate = system: PC-3 prostate
UO-31 renal = system: UO-31 renal
MDA-MB-435 = system: MDA-MB-435
SK-MEL-28 melanoma = system: SK-MEL-28 melanoma
SK-MEL-2 melanoma = system: SK-MEL-2 melanoma
SK-MEL-5 melanoma = system: SK-MEL-5 melanoma
HCT-116 colon = system: HCT-116 colon
NCI-H522 lung = system: NCI-H522 lung
CCRF-CEM leukemia = system: CCRF-CEM leukemia
TK-10 renal = system: TK-10 renal
NCI-H226 lung = system: NCI-H226 lung
HCT-15 colon = system: HCT-15 colon
HL-60(TB) leukemia = system: HL-60(TB) leukemia
786-0 renal = system: 786-0 renal
A498 renal = system: A498 renal

Compound: CCNCc1c(-c2cccc(OC(F)(F)F)c2)[nH]c2ccc(N3CCCC3)cc2c1=O
- GI50 (SNB-75 CNS): 1.42 µM
- TGI (SNB-75 CNS): 8.65 µM
- GI50 (KM12 colon): 3.54 µM
- TGI (KM12 colon): 20.7 µM
- GI50 (OVCAR-3 ovarian): 3.45 µM
- TGI (OVCAR-3 ovarian): 20.3 µM
- GI50 (OVCAR-4 ovarian): 7.77 µM
- TGI (OVCAR-4 ovarian): > 100 µM
- GI50 (LOX IMVI melanoma): 3.31 µM
- TGI (LOX IMVI melanoma): 12.5 µM
- GI50 (SN12C renal): 4.12 µM
- TGI (SN12C renal): 46.4 µM
- GI50 (K-562 leukemia): 3.4 µM
- TGI (K-562 leukemia): > 100 µM
- GI50 (OVCAR-8 ovarian): 5.22 µM
- TGI (OVCAR-8 ovarian): > 100 µM
- GI50 (HOP-62 NSCLC): 5.63 µM
- TGI (HOP-62 NSCLC): 73.8 µM
- GI50 (SR leukemia): 2.71 µM
- TGI (SR leukemia): 12.4 µM
- GI50 (ACHN renal): 6.73 µM
- TGI (ACHN renal): > 100 µM
- GI50 (MCF7 breast): 2.57 µM
- TGI (MCF7 breast): 11.2 µM
- GI50 (RXF 393 renal): 2.39 µM
- TGI (RXF 393 renal): 7.61 µM
- GI50 (HT29 colon): 3.53 µM
- TGI (HT29 colon): > 100 µM
- GI50 (HCC-2998 colon): 1.88 µM
- TGI (HCC-2998 colon): 3.58 µM
- GI50 (SF-295 CNS): 1.97 µM
- TGI (SF-295 CNS): 4.06 µM
- GI50 (HOP-92 NSCLC): 4.19 µM
- TGI (HOP-92 NSCLC): 38.4 µM
- GI50 (SF-268 CNS): 6.44 µM
- TGI (SF-268 CNS): 69.2 µM
- GI50 (RPMI-8226 leukemia): 2.44 µM
- TGI (RPMI-8226 leukemia): 6.85 µM
- GI50 (NCI-H23 lung): 3.15 µM
- TGI (NCI-H23 lung): 10.7 µM
- GI50 (SNB-19 CNS): 4.03 µM
- TGI (SNB-19 CNS): > 100 µM
- GI50 (M14 melanoma): 1.95 µM
- TGI (M14 melanoma): 4.28 µM
- GI50 (BT-549 breast): 4.84 µM
- TGI (BT-549 breast): 44.6 µM
- GI50 (MOLT-4 leukemia): 3.88 µM
- TGI (MOLT-4 leukemia): 37.3 µM
- GI50 (OVCAR-5 ovarian): 3.81 µM
- TGI (OVCAR-5 ovarian): 43.5 µM
- GI50 (MALME-3M melanoma): 1.99 µM
- TGI (MALME-3M melanoma): 4.41 µM
- GI50 (DU-145 prostate): 3.8 µM
- TGI (DU-145 prostate): > 100 µM
- GI50 (EKVX NSCLC): 12.3 µM
- TGI (EKVX NSCLC): > 100 µM
- GI50 (A549 NSCLC): 5.81 µM
- TGI (A549 NSCLC): > 100 µM
- GI50 (HS 578T breast): 1.94 µM
- TGI (HS 578T breast): 6.48 µM
- GI50 (SK-OV-3 ovarian): 7.19 µM
- TGI (SK-OV-3 ovarian): > 100 µM
- GI50 (SW-620 colon): 3.17 µM
- TGI (SW-620 colon): 13.7 µM
- GI50 (UACC-62 melanoma): 3.47 µM
- TGI (UACC-62 melanoma): 14.3 µM
- GI50 (MDA-MB-231 breast): 2.69 µM
- TGI (MDA-MB-231 breast): 9.28 µM
- GI50 (NCI/ADR-RES ovarian): 2.48 µM
- TGI (NCI/ADR-RES ovarian): 7 µM
- GI50 (U251 CNS): 3.23 µM
- TGI (U251 CNS): 14.8 µM
- GI50 (IGROV1 ovarian): 3.54 µM
- TGI (IGROV1 ovarian): > 100 µM
- GI50 (NCI-H460 lung): 3.72 µM
- TGI (NCI-H460 lung): 16.2 µM
- GI50 (UACC-257 melanoma): 2.35 µM
- TGI (UACC-257 melanoma): 6.08 µM
- GI50 (COLO 205 colon): 2.36 µM
- TGI (COLO 205 colon): 5.74 µM
- GI50 (CAKI-1 renal): 3.54 µM
- TGI (CAKI-1 renal): 17.6 µM
- GI50 (T-47D breast): 4.78 µM
- TGI (T-47D breast): 59.3 µM
- GI50 (SF-539 CNS): 2.24 µM
- TGI (SF-539 CNS): 5.85 µM
- GI50 (PC-3 prostate): 3.87 µM
- TGI (PC-3 prostate): > 100 µM
- GI50 (UO-31 renal): 3.72 µM
- TGI (UO-31 renal): > 100 µM
- GI50 (MDA-MB-435): 1.95 µM
- TGI (MDA-MB-435): 4.32 µM
- GI50 (SK-MEL-28 melanoma): 2.25 µM
- TGI (SK-MEL-28 melanoma): 5.51 µM
- GI50 (SK-MEL-2 melanoma): 3.73 µM
- TGI (SK-MEL-2 melanoma): 17.2 µM
- GI50 (SK-MEL-5 melanoma): 2.09 µM
- TGI (SK-MEL-5 melanoma): 4.42 µM
- GI50 (HCT-116 colon): 3.46 µM
- TGI (HCT-116 colon): 35.4 µM
- GI50 (NCI-H522 lung): 3.98 µM
- TGI (NCI-H522 lung): 23.1 µM
- GI50 (CCRF-CEM leukemia): 3.52 µM
- TGI (CCRF-CEM leukemia): > 100 µM
- GI50 (TK-10 renal): 24.7 µM
- TGI (TK-10 renal): > 100 µM
- GI50 (NCI-H226 lung): 9.29 µM
- TGI (NCI-H226 lung): > 100 µM
- GI50 (HCT-15 colon): 3.47 µM
- TGI (HCT-15 colon): 15.9 µM
- GI50 (HL-60(TB) leukemia): 2.86 µM
- TGI (HL-60(TB) leukemia): 9.69 µM
- GI50 (786-0 renal): 3.84 µM
- TGI (786-0 renal): 20.6 µM

Compound: O=C(Nc1ccc(Br)cc1)Nc1nc2ccc([N+](=O)[O-])cc2s1
- GI50 (SNB-75 CNS): 1.07 µM
- TGI (SNB-75 CNS): 3 µM
- GI50 (OVCAR-4 ovarian): 1.13 µM
- TGI (OVCAR-4 ovarian): 3.82 µM
- GI50 (LOX IMVI melanoma): 1.34 µM
- TGI (LOX IMVI melanoma): 2.67 µM
- GI50 (SN12C renal): 1.53 µM
- TGI (SN12C renal): 4.65 µM
- GI50 (HOP-62 NSCLC): 1.88 µM
- TGI (HOP-62 NSCLC): 5.04 µM
- GI50 (SR leukemia): 0.474 µM
- TGI (SR leukemia): 2.28 µM
- GI50 (RXF 393 renal): 0.862 µM
- TGI (RXF 393 renal): 2.41 µM
- GI50 (SF-295 CNS): 1.27 µM
- TGI (SF-295 CNS): 2.95 µM
- GI50 (SF-268 CNS): 1.69 µM
- TGI (SF-268 CNS): 5.44 µM
- GI50 (RPMI-8226 leukemia): 0.425 µM
- TGI (RPMI-8226 leukemia): 1.7 µM
- GI50 (NCI-H23 lung): 0.926 µM
- TGI (NCI-H23 lung): 2.5 µM
- GI50 (SNB-19 CNS): 1.18 µM
- TGI (SNB-19 CNS): 4.07 µM
- GI50 (BT-549 breast): 1.52 µM
- TGI (BT-549 breast): 3.27 µM
- GI50 (OVCAR-5 ovarian): 2.08 µM
- TGI (OVCAR-5 ovarian): 5.07 µM
- GI50 (MALME-3M melanoma): 0.792 µM
- TGI (MALME-3M melanoma): 3.49 µM
- GI50 (DU-145 prostate): 1.73 µM
- TGI (DU-145 prostate): 4.68 µM
- GI50 (A549 NSCLC): 1.86 µM
- TGI (A549 NSCLC): 6.9 µM
- GI50 (HS 578T breast): 1.47 µM
- TGI (HS 578T breast): 3.99 µM
- GI50 (SK-OV-3 ovarian): 1.59 µM
- TGI (SK-OV-3 ovarian): 6.75 µM
- GI50 (UACC-62 melanoma): 1.07 µM
- TGI (UACC-62 melanoma): 3.6 µM
- GI50 (MDA-MB-231 breast): 1.47 µM
- TGI (MDA-MB-231 breast): 3.5 µM
- GI50 (U251 CNS): 1.2 µM
- TGI (U251 CNS): 4.26 µM
- GI50 (NCI-H460 lung): 1.28 µM
- TGI (NCI-H460 lung): 3.08 µM
- GI50 (UACC-257 melanoma): 1.43 µM
- TGI (UACC-257 melanoma): 4.11 µM
- GI50 (COLO 205 colon): 1.64 µM
- TGI (COLO 205 colon): 3.15 µM
- GI50 (A498 renal): 0.192 µM
- TGI (A498 renal): 0.785 µM
- GI50 (T-47D breast): 0.573 µM
- TGI (T-47D breast): 3.38 µM
- GI50 (SF-539 CNS): 1.31 µM
- TGI (SF-539 CNS): 3.08 µM
- GI50 (PC-3 prostate): 0.542 µM
- TGI (PC-3 prostate): 2.08 µM
- GI50 (UO-31 renal): 1.49 µM
- TGI (UO-31 renal): 4.74 µM
- GI50 (SK-MEL-2 melanoma): 1.26 µM
- TGI (SK-MEL-2 melanoma): 3 µM
- GI50 (SK-MEL-5 melanoma): 0.696 µM
- TGI (SK-MEL-5 melanoma): 2.03 µM
- GI50 (HCT-116 colon): 0.875 µM
- TGI (HCT-116 colon): 2.37 µM
- GI50 (CCRF-CEM leukemia): 0.377 µM
- TGI (CCRF-CEM leukemia): 2.74 µM
- GI50 (TK-10 renal): 1.89 µM
- TGI (TK-10 renal): 4.75 µM
- GI50 (NCI-H226 lung): 1.44 µM
- TGI (NCI-H226 lung): 3.09 µM
- GI50 (HL-60(TB) leukemia): 1.02 µM
- TGI (HL-60(TB) leukemia): 2.75 µM
